Measurements taken from US20180057507A1, “INHIBITORS OF DUAL LEUCINE ZIPPER (DLK) KINASE FOR THE TREATMENT OF DISEASE” (Board of Regents, The University of Texas System, priority 2016, published 2018).

Legend:
human DLK [1] = target: T1, human DLK (Homo sapiens, UniProt Q12852); experiment: Phospho-cJun Cellular Assay; format: cell-based; set-up: expressed in transfected cells; settings: HEK293 cells stably transfected with Dox-inducible human DLK; p-cJun (Ser63); 5 h compound incubation
T1 sequence (Q12852 1-859): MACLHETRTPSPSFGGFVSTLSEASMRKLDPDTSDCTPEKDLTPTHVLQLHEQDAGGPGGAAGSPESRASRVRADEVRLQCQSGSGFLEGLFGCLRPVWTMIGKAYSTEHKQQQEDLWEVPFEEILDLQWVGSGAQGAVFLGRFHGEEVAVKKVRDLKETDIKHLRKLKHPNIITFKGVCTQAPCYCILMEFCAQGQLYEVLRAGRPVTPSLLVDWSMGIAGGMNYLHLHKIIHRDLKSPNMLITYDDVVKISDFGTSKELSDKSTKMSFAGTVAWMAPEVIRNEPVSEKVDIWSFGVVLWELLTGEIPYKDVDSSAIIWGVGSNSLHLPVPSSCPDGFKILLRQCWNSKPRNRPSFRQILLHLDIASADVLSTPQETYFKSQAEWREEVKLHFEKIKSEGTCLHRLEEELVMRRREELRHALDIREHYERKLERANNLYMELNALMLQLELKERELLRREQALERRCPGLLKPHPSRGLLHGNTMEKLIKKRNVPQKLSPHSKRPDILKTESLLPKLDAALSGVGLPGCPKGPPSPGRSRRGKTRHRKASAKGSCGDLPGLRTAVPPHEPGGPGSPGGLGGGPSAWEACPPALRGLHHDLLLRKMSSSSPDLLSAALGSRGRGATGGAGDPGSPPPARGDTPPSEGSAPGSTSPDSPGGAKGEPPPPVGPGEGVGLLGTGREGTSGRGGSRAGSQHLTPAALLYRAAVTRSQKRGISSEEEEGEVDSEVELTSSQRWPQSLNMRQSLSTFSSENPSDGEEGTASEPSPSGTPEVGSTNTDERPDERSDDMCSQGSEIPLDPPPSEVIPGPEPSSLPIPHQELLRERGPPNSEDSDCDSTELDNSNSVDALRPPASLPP
Procedure: Phospho-cJun Cellular Assay
HEK293 cells stably transfected with a Dox-inducible human DLK were plated into a 384-well plate in 20 μl (40,000 cells/well) of DMEM medium (without phenol red) containing 10% fetal bovine serum, 1.5 μg/ml doxycycline and 1 μg/ml puromycin. The cells as negative control were grown in the absence of doxycycline. The plate was incubated at 37° C., 5% CO2 for 20 h, before DMSO (control) or compounds diluted in medium were added. The cells were incubated at 37° C. for an additional 5 h, followed by lysis and the addition detection antibodies from p-cJun (Ser63) cellular assay kit (Cisbio) per manufacturer protocol. The standard dose response curves were fitted by Genedata Screener software using the variable-slope model: Signal=Signalnegative control+(SignalDMSO control−Signalnegative control)/(1+(IC50/Dose)̂Hill slope). Only signal and dose in the equation were treated as known values.

human DLK [2] = target: T1, human DLK; experiment: DLK Kd Determinations (KINOMEscan KdELECT, DiscoveRx); set-up: full length of human DLK (amino acids 1-859); host or cells: transiently transfected HEK293 cells; unpurified extract; settings: fusion protein of full length human DLK (amino acids 1-859) and NFkB DNA binding domain; qPCR readout; duplicate
How it was run: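 Kd values were fitted by Hill equation (slope −1) from duplicate 11-point 3-fold dilutions starting at 30,000 nM. Bead-immobilized ligand competed with compound for DNA-tagged full-length human DLK fusion in HEK293 extract (final DMSO 0.9%, 1 h, room temperature), with qPCR readout of bound kinase.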

| IC50 (human DLK [1]) [nM] | Kd (human DLK [2]) [nM] | SMILES |
| --- | --- | --- |
| 666 | 76 | CC(C)c1nc(-c2cnc(N)c(OC(F)(F)F)c2)cn1[C@H]1[C@@H]2CC(N3CCOCC3)C[C@@H]21 (single isomer, unassigned) [Example 19a] |
| 493 | 38 | CC(C)c1nc(-c2cnc(N)c(OC(F)(F)F)c2)cn1[C@H]1[C@@H]2CC(N3CCOCC3)C[C@@H]21 (single isomer, unassigned) [Example 19b] |
| 965 | 15 | CC(C)c1nc(-c2cnc(N)c(OC(F)(F)F)c2)cn1[C@H]1[C@@H]2CC(N3CCCOCC3)C[C@@H]21 (single isomer, unassigned) [Example 20a, 5-(1-(3-(1,4-oxazepan-4-yl)bicyclo[3.1.0]hexan-6-yl)-2-isopropyl-1H-imidazol-4-yl)-3-(trifluoromethoxy)pyridin-2-amine] |
| 1050 | 44 | CC(C)c1nc(-c2cnc(N)c(OC(F)(F)F)c2)cn1[C@H]1[C@@H]2CC(N3CCCOCC3)C[C@@H]21 (single isomer, unassigned) [Example 20b, 5-(1-(3-(1,4-oxazepan-4-yl)bicyclo[3.1.0]hexan-6-yl)-2-isopropyl-1H-imidazol-4-yl)-3-(trifluoromethoxy)pyridin-2-amine] |
| 1590 | 84 | CC(C)c1nc(-c2cnc(N)c(C(F)(F)F)c2)cn1[C@H]1[C@@H]2CC(O)C[C@@H]21 (single isomer, unassigned) [Example 48a, 6-(4-(6-amino-5-(trifluoromethyl)pyridin-3-yl)-2-isopropyl-1H-imidazol-1-yl)bicyclo[3.1.0]hexan-3-ol] |
| 1240 | 59 | CC(C)c1nc(-c2cnc(N)c(C(F)(F)F)c2)cn1[C@H]1[C@@H]2CC(O)C[C@@H]21 (single isomer, unassigned) [Example 48b, 6-(4-(6-amino-5-(trifluoromethyl)pyridin-3-yl)-2-isopropyl-1H-imidazol-1-yl)bicyclo[3.1.0]hexan-3-ol] |
| 939 | 52 | CC(C)c1nc(-c2cnc(N)c(C(F)(F)F)c2)cn1[C@H]1[C@@H]2CC(N3CCOCC3)C[C@@H]21 (single isomer, unassigned) [Example 127a] |
| 633 | 61 | CC(C)c1nc(-c2cnc(N)c(C(F)(F)F)c2)cn1[C@H]1[C@@H]2CC(N3CCOCC3)C[C@@H]21 (single isomer, unassigned) [Example 127b] |
| 748 | 40 | Nc1ncc(-c2cn([C@H]3[C@@H]4CC(N5CCOCC5)C[C@@H]43)c(C3CC3)n2)cc1C(F)(F)F (single isomer, unassigned) [Example 128a, 5-(2-cyclopropyl-1-(3-morpholinobicyclo[3.1.0]hexan-6-yl)-1H-imidazol-4-yl)-3-(trifluoromethyl)pyridin-2-amine] |
| 755 | 22 | Nc1ncc(-c2cn([C@H]3[C@@H]4CC(N5CCOCC5)C[C@@H]43)c(C3CC3)n2)cc1C(F)(F)F (single isomer, unassigned) [Example 128b, 5-(2-cyclopropyl-1-(3-morpholinobicyclo[3.1.0]hexan-6-yl)-1H-imidazol-4-yl)-3-(trifluoromethyl)pyridin-2-amine] |
| 503 | 12.8 | CN1CCN(C2C[C@@H]3[C@H](C2)[C@H]3n2cc(-c3cnc(N)c(C(F)(F)F)c3)nc2C2CC2)CC1 (single isomer, unassigned) [Example 129a, 5-(2-cyclopropyl-1-(3-(4-methylpiperazin-1-yl)bicyclo[3.1.0]hexan-6-yl)-1H-imidazol-4-yl)-3-(trifluoromethyl)pyridin-2-amine] |
| 633 | 16 | CN1CCN(C2C[C@@H]3[C@H](C2)[C@H]3n2cc(-c3cnc(N)c(C(F)(F)F)c3)nc2C2CC2)CC1 (single isomer, unassigned) [Example 129b, 5-(2-cyclopropyl-1-(3-(4-methylpiperazin-1-yl)bicyclo[3.1.0]hexan-6-yl)-1H-imidazol-4-yl)-3-(trifluoromethyl)pyridin-2-amine] |
| 896 | 20 | CC(C)c1nc(-c2cnc(N)c(OC(F)(F)F)c2)cn1[C@H]1[C@@H]2CC(N3CCN(C)CC3)C[C@@H]21 (single isomer, unassigned) [Example 133a, 5-(2-isopropyl-1-(3-(4-methylpiperazin-1-yl)bicyclo[3.1.0]hexan-6-yl)-1H-imidazol-4-yl)-3-(trifluoromethoxy)pyridin-2-amine] |
| 645 | 21 | CC(C)c1nc(-c2cnc(N)c(OC(F)(F)F)c2)cn1[C@H]1[C@@H]2CC(N3CCN(C)CC3)C[C@@H]21 (single isomer, unassigned) [Example 133b, 5-(2-isopropyl-1-(3-(4-methylpiperazin-1-yl)bicyclo[3.1.0]hexan-6-yl)-1H-imidazol-4-yl)-3-(trifluoromethoxy)pyridin-2-amine] |
| 1010 | 23 | Nc1ncc(-c2cn([C@H]3[C@@H]4CC(N5CCOCC5)C[C@@H]43)c(CC3CC3)n2)cc1C(F)(F)F (single isomer, unassigned) [Example 138a, 5-(2-(cyclopropylmethyl)-1-(3-morpholinobicyclo[3.1.0]hexan-6-yl)-1H-imidazol-4-yl)-3-(trifluoromethyl)pyridin-2-amine] |
| 1050 | 34 | Nc1ncc(-c2cn([C@H]3[C@@H]4CC(N5CCOCC5)C[C@@H]43)c(CC3CC3)n2)cc1C(F)(F)F (single isomer, unassigned) [Example 138b, 5-(2-(cyclopropylmethyl)-1-(3-morpholinobicyclo[3.1.0]hexan-6-yl)-1H-imidazol-4-yl)-3-(trifluoromethyl)pyridin-2-amine] |
| 544 | 37 | Nc1ncc(-c2cn([C@H]3[C@@H]4CC(N5CCOCC5)C[C@@H]43)c(C3CC3)n2)cc1OC(F)(F)F (single isomer, unassigned) [Example 139a, 5-(2-cyclopropyl-1-(3-morpholinobicyclo[3.1.0]hexan-6-yl)-1H-imidazol-4-yl)-3-(trifluoromethoxy)pyridin-2-amine] |
| 834 | 32 | C[C@H]1COCCN1C1C[C@@H]2[C@H](C1)[C@H]2n1cc(-c2cnc(N)c(C(F)(F)F)c2)nc1C1CC1 (single isomer, unassigned) [Example 140a] |
| 629 | – | CN1CCN(C2C[C@@H]3[C@H](C2)[C@H]3n2cc(-c3cnc(N)c(C(F)(F)F)c3)nc2CC2CC2)CC1 (single isomer, unassigned) [Example 161b, 5-(2-(cyclopropylmethyl)-1-(3-(4-methylpiperazin-1-yl)bicyclo[3.1.0]hexan-6-yl)-1H-imidazol-4-yl)-3-(trifluoromethyl)pyridin-2-amine] |
| 1040 | – | Nc1ncc(-c2cn([C@H]3[C@@H]4CC(N5CCN(CCF)CC5)C[C@@H]43)c(CC3CC3)n2)cc1C(F)(F)F (single isomer, unassigned) [Example 162a, 5-(2-(cyclopropylmethyl)-1-(3-(4-(2-fluoroethyl)piperazin-1-yl)bicyclo[3.1.0]hexan-6-yl)-1H-imidazol-4-yl)-3-(trifluoromethyl)pyridin-2-amine] |
| 7690 | – | CC(C)c1nc(-c2cnc(N)c(C(F)(F)F)c2)cn1[C@H]1C[C@@H](N2CCOCC2)C1 [Example 44, 5-(2-isopropyl-1-((1s,3s)-3-morpholinocyclobutyl)-1H-imidazol-4-yl)-3-(trifluoromethyl)pyridin-2-amine] |
